Measured values from ChEMBL document CHEMBL4190187, “Discovery of pyrazolopyrimidine derivatives as novel inhibitors of ataxia telangiectasia and rad3 related protein (ATR)” (Bioorg Med Chem Lett, 2017).

What was measured:
[1] = biological target: [Pyruvate dehydrogenase (acetyl-transferring)] kinase isozyme 4, mitochondrial (Homo sapiens) (UniProt Q16654); assay: Inhibition of recombinant full-length human PDHK4 at 1 uM using KKKYHGHSMSDPGVSYRT as substrate after 40 mins in presence of [gamma-33P]ATP by scintillation counting method
[2] = biological target: Macrophage colony-stimulating factor 1 receptor (Homo sapiens) (UniProt P07333); assay: Inhibition of recombinant human Fms (538 to end residues) at 1 uM using KKKSPGEYVNIEFG as substrate after 40 mins in presence of [gamma-33P]ATP by scintillation counting method
Macrophage colony-stimulating factor 1 receptor (Homo sapiens), sequence (P07333 whole entry): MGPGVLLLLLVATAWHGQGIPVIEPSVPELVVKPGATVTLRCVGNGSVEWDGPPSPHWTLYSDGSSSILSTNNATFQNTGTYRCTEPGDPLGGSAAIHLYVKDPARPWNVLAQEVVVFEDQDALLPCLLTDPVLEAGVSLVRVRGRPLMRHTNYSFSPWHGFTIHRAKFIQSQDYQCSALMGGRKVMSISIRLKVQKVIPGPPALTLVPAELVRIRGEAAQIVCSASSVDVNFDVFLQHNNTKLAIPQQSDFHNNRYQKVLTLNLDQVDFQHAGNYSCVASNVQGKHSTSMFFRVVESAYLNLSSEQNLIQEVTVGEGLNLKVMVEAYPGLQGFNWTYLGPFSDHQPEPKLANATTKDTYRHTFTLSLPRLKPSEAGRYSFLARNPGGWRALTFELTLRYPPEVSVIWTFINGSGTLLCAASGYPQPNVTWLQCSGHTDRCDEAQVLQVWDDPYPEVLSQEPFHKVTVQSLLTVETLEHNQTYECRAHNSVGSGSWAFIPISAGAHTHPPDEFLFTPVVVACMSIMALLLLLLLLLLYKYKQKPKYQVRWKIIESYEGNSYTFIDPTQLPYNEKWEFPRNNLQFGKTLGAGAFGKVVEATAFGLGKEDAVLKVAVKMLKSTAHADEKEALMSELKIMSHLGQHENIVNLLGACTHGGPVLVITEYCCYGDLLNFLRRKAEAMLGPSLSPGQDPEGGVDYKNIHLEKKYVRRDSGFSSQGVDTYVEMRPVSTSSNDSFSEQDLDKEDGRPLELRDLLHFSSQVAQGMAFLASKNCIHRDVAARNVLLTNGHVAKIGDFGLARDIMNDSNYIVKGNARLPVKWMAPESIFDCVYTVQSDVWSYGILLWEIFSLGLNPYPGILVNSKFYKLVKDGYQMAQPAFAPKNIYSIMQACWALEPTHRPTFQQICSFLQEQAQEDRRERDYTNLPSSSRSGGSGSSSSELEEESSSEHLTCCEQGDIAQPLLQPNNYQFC

[3] = biological target: Dual specificity mitogen-activated protein kinase kinase 2 (Homo sapiens) (UniProt P36507); assay: Inhibition of recombinant full-length human MEK2 at 1 uM using MBP as substrate after 40 mins in presence of [gamma-33P]ATP by scintillation counting method
[4] = biological target: Discoidin domain-containing receptor 2 (Homo sapiens) (UniProt Q16832); assay: Inhibition of recombinant human DDR2 (467 to end residues) at 1 uM using KKSRGDYMTMQIG as substrate after 40 mins in presence of [gamma-33P]ATP by scintillation counting method
[5] = test system: Tyrosine-protein kinase ABL1 (Homo sapiens), P00519 [H396P]; assay: Inhibition of recombinant human Abl H396P mutant (27 to end residues) at 1 uM using EAIYAAPFAKKK as substrate after 40 mins in presence of [gamma-33P]ATP by scintillation counting method
[6] = biological target: Serine/threonine-protein kinase 32A (Homo sapiens) (UniProt Q8WU08); assay: Inhibition of recombinant full-length human STK32A at 1 uM using casein as substrate after 120 mins in presence of [gamma-33P]ATP by scintillation counting method
[7] = test system: Macrophage colony-stimulating factor 1 receptor (Homo sapiens), P07333 [Y969C]; assay: Inhibition of recombinant human Fms Y969C mutant (538 to end residues) at 1 uM using EEEEYEEEEEEYYIIEEEEEEYEEEEEEYYEEEEEEKKKK as substrate after 40 mins in presence of [gamma-33P]ATP by scintillation counting method
Macrophage colony-stimulating factor 1 receptor (Homo sapiens), P07333 [Y969C], sequence (P07333 whole entry Y969C): as the sequence (P07333 whole entry) above, with Y969C counted along it

[8] = test system: Proto-oncogene tyrosine-protein kinase Src (Homo sapiens), P12931 [T341M]; assay: Inhibition of recombinant full-length human Src T341M mutant at 1 uM using GGEEEEYFELVKKKK as substrate after 40 mins in presence of [gamma-33P]ATP by scintillation counting method
Proto-oncogene tyrosine-protein kinase Src (Homo sapiens), P12931 [T341M], sequence (P12931 whole entry T341M, looked up, the tested form may be a part): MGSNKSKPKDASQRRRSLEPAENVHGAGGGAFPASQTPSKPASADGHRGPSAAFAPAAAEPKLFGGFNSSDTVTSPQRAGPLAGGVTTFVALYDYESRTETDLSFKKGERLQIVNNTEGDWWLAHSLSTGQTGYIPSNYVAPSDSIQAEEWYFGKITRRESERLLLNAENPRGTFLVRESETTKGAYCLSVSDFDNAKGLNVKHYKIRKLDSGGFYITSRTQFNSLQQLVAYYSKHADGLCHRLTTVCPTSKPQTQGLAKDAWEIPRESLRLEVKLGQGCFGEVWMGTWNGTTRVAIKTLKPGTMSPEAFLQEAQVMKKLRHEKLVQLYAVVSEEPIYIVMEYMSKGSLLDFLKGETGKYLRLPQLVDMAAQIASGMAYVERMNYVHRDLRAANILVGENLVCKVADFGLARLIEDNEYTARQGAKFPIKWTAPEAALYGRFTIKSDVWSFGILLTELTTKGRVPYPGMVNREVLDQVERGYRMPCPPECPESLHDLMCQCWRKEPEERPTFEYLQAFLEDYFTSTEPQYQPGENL

[9] = biological target: Serine/threonine-protein kinase SIK3 (Homo sapiens) (UniProt Q9Y2K2); assay: Inhibition of recombinant human SIK3 (1 to 307 residues) at 1 uM using KKKVSRSGLYRSPSMPENLNRPR as substrate after 40 mins in presence of [gamma-33P]ATP by scintillation counting method
[10] = biological target: SRSF protein kinase 3 (Homo sapiens) (UniProt Q9UPE1); assay: Inhibition of recombinant full-length human MSSK1 at 1 uM using ERMRPRKRQGSVRRRV as substrate after 40 mins in presence of [gamma-33P]ATP by scintillation counting method
SRSF protein kinase 3 (Homo sapiens), sequence (Q9UPE1 whole entry): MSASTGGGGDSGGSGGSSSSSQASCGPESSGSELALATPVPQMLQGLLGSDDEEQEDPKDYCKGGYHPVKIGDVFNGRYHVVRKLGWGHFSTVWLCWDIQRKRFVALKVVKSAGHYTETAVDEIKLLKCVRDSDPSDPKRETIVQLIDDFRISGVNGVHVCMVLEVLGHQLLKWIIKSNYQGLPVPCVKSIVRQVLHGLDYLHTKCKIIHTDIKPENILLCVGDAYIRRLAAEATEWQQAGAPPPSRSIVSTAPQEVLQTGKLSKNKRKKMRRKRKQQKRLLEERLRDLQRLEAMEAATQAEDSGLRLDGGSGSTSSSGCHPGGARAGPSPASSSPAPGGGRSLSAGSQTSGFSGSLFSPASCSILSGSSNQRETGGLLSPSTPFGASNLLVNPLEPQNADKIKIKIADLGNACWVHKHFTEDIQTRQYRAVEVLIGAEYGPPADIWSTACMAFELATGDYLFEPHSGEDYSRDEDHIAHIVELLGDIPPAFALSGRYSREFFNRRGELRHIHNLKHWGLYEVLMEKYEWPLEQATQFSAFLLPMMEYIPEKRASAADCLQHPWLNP

[11] = biological target: Tyrosine-protein kinase Lck (Homo sapiens) (UniProt P06239); assay: Inhibition of recombinant full-length human activated Lck at 1 uM using KVEKIGEGTYGVVYK as substrate after 40 mins in presence of [gamma-33P]ATP by scintillation counting method
Tyrosine-protein kinase Lck (Homo sapiens), sequence (P06239 2-509 limits assumed): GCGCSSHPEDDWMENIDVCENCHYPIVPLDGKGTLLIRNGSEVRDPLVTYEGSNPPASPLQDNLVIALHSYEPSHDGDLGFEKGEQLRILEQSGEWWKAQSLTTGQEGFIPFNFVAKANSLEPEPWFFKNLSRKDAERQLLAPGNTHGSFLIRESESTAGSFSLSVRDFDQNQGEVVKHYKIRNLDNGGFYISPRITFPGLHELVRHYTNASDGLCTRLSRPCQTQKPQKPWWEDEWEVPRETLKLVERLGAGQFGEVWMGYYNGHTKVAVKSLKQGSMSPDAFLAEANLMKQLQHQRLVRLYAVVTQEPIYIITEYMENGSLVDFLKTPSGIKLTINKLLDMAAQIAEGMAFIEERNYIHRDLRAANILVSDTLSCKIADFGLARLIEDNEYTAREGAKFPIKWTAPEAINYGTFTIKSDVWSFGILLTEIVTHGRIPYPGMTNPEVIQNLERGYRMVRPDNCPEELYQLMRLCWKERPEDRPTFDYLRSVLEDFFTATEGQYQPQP

[12] = biological target: Serine/threonine-protein kinase PAK 3 (Homo sapiens) (UniProt O75914); assay: Inhibition of recombinant full-length human PAK3 at 1 uM using RRRLSFAEPG as substrate after 40 mins in presence of [gamma-33P]ATP by scintillation counting method
[13] = test system: Tyrosine-protein kinase BTK (Homo sapiens), Q06187 [R28H]; assay: Inhibition of recombinant full-length human BTK R28H mutant at 1 uM using LSNLYHQGKFLQTFCGSPLYRRR as substrate after 40 mins in presence of [gamma-33P]ATP by scintillation counting method
[14] = biological target: Phosphorylase b kinase gamma catalytic chain, skeletal muscle/heart isoform (Homo sapiens) (UniProt Q16816); assay: Inhibition of recombinant full-length human PhKgamma1 at 1 uM using KKLNRTLSFAEPG as substrate after 120 mins in presence of [gamma-33P]ATP by scintillation counting method
Phosphorylase b kinase gamma catalytic chain, skeletal muscle/heart isoform (Homo sapiens), sequence (Q16816 whole entry, looked up, canonical isoform): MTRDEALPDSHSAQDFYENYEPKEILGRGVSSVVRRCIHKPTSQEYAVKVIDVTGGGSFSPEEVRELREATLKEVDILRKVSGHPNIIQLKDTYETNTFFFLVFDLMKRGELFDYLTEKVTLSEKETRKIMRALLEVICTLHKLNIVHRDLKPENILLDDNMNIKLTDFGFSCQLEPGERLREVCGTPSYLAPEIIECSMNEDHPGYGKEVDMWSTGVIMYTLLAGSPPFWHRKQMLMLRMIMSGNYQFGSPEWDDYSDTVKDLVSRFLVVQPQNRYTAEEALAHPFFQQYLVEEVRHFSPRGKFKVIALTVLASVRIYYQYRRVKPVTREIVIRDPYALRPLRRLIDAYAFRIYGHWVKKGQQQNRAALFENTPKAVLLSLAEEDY

[15] = biological target: Serine/threonine-protein kinase DCLK2 (Homo sapiens) (UniProt Q8N568); assay: Inhibition of recombinant human DCAMKL2 (376 to end residues) at 1 uM using KKLNRTLSFAEPG as substrate after 40 mins in presence of [gamma-33P]ATP by scintillation counting method
[16] = biological target: Rhodopsin kinase GRK1 (Homo sapiens) (UniProt Q15835); assay: Inhibition of recombinant full-length human GRK1 at 1 uM using KKKKERLLDDRHDSGLDSMKDEE as substrate after 40 mins in presence of [gamma-33P]ATP by scintillation counting method
Rhodopsin kinase GRK1 (Homo sapiens), sequence (Q15835 whole entry): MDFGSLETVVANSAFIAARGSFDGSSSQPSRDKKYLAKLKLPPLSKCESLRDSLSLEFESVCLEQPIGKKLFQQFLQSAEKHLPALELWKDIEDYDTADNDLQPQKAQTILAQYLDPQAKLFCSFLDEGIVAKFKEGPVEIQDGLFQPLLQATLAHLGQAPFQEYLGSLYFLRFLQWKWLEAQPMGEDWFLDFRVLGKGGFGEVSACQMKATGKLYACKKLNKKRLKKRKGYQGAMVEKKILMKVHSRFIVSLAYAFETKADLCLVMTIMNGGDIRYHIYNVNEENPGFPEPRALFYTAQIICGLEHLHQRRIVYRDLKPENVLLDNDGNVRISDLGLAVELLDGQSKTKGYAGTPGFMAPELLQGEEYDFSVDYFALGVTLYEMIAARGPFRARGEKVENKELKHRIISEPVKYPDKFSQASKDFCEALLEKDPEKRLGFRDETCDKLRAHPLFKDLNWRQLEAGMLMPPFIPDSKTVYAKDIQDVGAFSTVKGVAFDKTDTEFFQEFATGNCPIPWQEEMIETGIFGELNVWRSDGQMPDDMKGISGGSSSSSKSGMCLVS

[17] = biological target: Serine/threonine-protein kinase ATR (Homo sapiens, UniProt Q13535); assay: Inhibition of human recombinant FLAG-tagged full length ATR expressed in mammalian cell line co-expressing human recombinant cMyc-tagged full length ATRIP at 1 uM using GST-cMyc-p53 as substrate after 40 mins in presence of [gamma-33P]ATP by scintillation counting method
[18] = test system: Fibroblast growth factor receptor 2 (Homo sapiens), P21802 [N549H]; assay: Inhibition of recombinant human FGFR2 N549H mutant (456 to 770 residues) at 1 uM using GGEEEEYFELVKKKK as substrate after 40 mins in presence of [gamma-33P]ATP by scintillation counting method
[19] = biological target: G protein-coupled receptor kinase 6 (Homo sapiens) (UniProt P43250); assay: Inhibition of recombinant full-length human GRK6 at 1 uM using casein as substrate after 40 mins in presence of [gamma-33P]ATP by scintillation counting method
[20] = biological target: Ephrin type-A receptor 7 (Homo sapiens) (UniProt Q15375); assay: Inhibition of recombinant human EPHA7 (613 to 909 residues) at 1 uM using KTFCGTPEYLAPEVRREPRILSEEEQEMFRDFDYIADWC as substrate after 40 mins in presence of [gamma-33P]ATP by scintillation counting method
Ephrin type-A receptor 7 (Homo sapiens), sequence (Q15375 28-998 limits assumed): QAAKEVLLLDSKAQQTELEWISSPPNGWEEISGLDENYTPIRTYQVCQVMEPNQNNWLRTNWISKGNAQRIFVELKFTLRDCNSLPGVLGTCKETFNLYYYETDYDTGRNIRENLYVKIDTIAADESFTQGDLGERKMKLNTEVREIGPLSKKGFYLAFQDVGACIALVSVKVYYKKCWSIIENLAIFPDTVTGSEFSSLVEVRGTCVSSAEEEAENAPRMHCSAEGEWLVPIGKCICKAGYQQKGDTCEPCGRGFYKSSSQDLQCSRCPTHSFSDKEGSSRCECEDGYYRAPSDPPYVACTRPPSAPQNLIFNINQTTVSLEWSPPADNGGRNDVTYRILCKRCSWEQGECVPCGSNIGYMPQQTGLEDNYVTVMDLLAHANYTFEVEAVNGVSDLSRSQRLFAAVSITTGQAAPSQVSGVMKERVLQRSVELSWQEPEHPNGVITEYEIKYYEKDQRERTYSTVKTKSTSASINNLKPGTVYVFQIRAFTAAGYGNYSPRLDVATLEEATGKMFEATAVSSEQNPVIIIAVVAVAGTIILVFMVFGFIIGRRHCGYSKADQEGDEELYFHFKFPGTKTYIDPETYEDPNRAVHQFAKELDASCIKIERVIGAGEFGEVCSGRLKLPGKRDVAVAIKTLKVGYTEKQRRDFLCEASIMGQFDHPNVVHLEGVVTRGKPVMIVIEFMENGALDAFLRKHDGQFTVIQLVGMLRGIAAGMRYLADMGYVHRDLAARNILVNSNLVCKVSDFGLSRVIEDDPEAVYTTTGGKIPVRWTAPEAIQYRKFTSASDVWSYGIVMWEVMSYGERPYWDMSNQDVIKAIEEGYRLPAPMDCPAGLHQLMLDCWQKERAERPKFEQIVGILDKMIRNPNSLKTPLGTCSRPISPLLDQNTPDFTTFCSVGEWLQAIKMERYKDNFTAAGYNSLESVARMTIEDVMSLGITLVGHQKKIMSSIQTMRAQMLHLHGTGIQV

[21] = biological target: Insulin receptor (Homo sapiens) (UniProt P06213); assay: Inhibition of recombinant human IR (1005 to 1310 residues) at 1 uM using KKSRGDYMTMQIG as substrate after 40 mins in presence of [gamma-33P]ATP by scintillation counting method
[22] = biological target: Calcium/calmodulin-dependent protein kinase type 1B (Homo sapiens) (UniProt Q6P2M8); assay: Inhibition of recombinant full-length human CAMK1beta at 1 uM using KKLRRTLSFAEPG as substrate after 40 mins in presence of [gamma-33P]ATP by scintillation counting method
Calcium/calmodulin-dependent protein kinase type 1B (Homo sapiens), sequence (Q6P2M8 whole entry): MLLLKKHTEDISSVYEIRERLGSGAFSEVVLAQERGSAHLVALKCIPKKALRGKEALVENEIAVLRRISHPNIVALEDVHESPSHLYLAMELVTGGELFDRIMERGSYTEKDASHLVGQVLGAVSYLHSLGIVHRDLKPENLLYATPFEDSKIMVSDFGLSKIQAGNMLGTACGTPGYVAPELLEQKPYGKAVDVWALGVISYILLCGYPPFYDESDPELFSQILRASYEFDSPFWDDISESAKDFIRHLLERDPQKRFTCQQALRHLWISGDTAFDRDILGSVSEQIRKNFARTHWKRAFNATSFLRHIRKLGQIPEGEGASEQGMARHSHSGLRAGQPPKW

[23] = test system: Angiopoietin-1 receptor (Homo sapiens), Q02763 [Y897S]; assay: Inhibition of recombinant activated human Tie2 Y897S mutant (771 to end residues) at 1 uM using EFPIYDFLPAKKK as substrate after 40 mins in presence of [gamma-33P]ATP by scintillation counting method

CS(=O)(=O)c1ccc(-n2nc(-c3cnc4[nH]ccc4c3)c3c(N)ncnc32)cc1
inhibition [1]: -1%
inhibition [2]: 76%
inhibition [3]: -7%
inhibition [4]: 4%
inhibition [5]: 79%
inhibition [6]: 6%
inhibition [7]: 69%
inhibition [8]: 7%
inhibition [9]: 20%
inhibition [10]: -8%
inhibition [11]: 38%
inhibition [12]: 4%
inhibition [13]: 5%
inhibition [14]: -4%
inhibition [15]: -1%
inhibition [16]: 10%
inhibition [17]: 96%
inhibition [18]: 70%
inhibition [19]: -3%
inhibition [20]: 0%
inhibition [21]: -7%
inhibition [22]: -5%
inhibition [23]: 1%
